The text below walks through data of the NIST ThermoML archive (doi:10.1021/je200215d).

The term surface tension liquid-gas denotes the work needed to enlarge the surface of a liquid by unit area. As usually defined, the mass density is mass per unit of volume. In general, vapor or sublimation pressure refers to the equilibrium pressure above the liquid or solid. What is called refractive index is the speed of light in vacuum divided by its phase velocity in the sample.

± gives the expanded uncertainty stated by the source.

Data set [1] is described as follows: xn = mol fraction of the nth substance listed. As to conditions: 303.15 K, Maximal bubble pressure.
For data set [2] the following is noted: for surface tension liquid-gas / mass density: 298.15 K; for surface tension liquid-gas: Maximal bubble pressure; for mass density: 101.33 kPa, Vibrating tube method; for mass density / vapor or sublimation pressure: Liquid; for vapor or sublimation pressure: Ebulliometric method (Recirculating still).
The nature of data set [3]: refractive index (Na D-line) (dimensionless). As to conditions: 298.15 K; 101.33 kPa; Liquid; Standard Abbe refractometry.

With `CCO` [ethanol] + CCC(C)(C)OC, the surface tension liquid-gas in data set [1] (x1 = 1) is given as 21.7 ± 0.26 mN/m.
For the compound `CCC(C)(C)OC` [2-methoxy-2-methylbutane], in data set [2], the surface tension liquid-gas worked out at 22 ± 0.23 mN/m and the mass density turned out to be 765.8 ± 0.18 kg/m3. Moreover, the “vapor or sublimation pressure” value in data set [2] (359.52 K) was determined as 101.33 ± 0.21 kPa. In addition, the refractive index in data set [3] is 1.38712 ± 0.00072.
In the case of `CCO` [ethanol], in data set [2], the surface tension liquid-gas is 21.7 ± 0.23 mN/m and the mass density is 785.05 ± 0.16 kg/m3. Also, the “vapor or sublimation pressure” value in data set [2] (351.45 K) was found to be 101.33 ± 0.21 kPa. Also, the refractive index in data set [3] is 1.36068 ± 0.00072.
As to `CCC(C)(C)OC` [2-methoxy-2-methylbutane] + CCO, the surface tension liquid-gas in data set [1] (x2 = 0) was found to be 22 ± 0.26 mN/m; in data set [1] (x2 = 0.04), 21.97 ± 0.26 mN/m; in data set [1] (x2 = 0.071), 21.95 ± 0.26 mN/m; in data set [1] (x2 = 0.137), 21.93 ± 0.26 mN/m; in data set [1] (x2 = 0.198), 21.9 ± 0.26 mN/m; in data set [1] (x2 = 0.252), 21.88 ± 0.26 mN/m. Further, the surface tension liquid-gas in data set [1] (x2 = 0.303) was determined as 21.86 ± 0.26 mN/m; in data set [1] (x2 = 0.41) it was 21.84 ± 0.26 mN/m; in data set [1] (x2 = 0.508) it was 21.81 ± 0.26 mN/m; in data set [1] (x2 = 0.611) it was 21.78 ± 0.26 mN/m; in data set [1] (x2 = 0.708) it was 21.76 ± 0.26 mN/m; in data set [1] (x2 = 0.803), 21.73 ± 0.26 mN/m. The surface tension liquid-gas in data set [1] (x2 = 0.898) came to 21.71 ± 0.26 mN/m.
